These results are taken from patent US10005817B2, “Peptide pharmaceuticals” (EUMEDERIS PHARMACEUTICALS, INC., priority 2012, dated 2018).

“Also recorded” adds a separate entry of the source. Non-standard residues stand in square brackets, D forms with d. Residues, ends and D or L forms follow the SMILES beside them. *: point of attachment. GlcA(β-D,1-O-dodecyl) = CCCCCCCCCCCCO[C@@H]1O[C@H](C(=O)*)[C@@H](O)[C@H](O)[C@H]1O; βGlcA(1-OMe) = CO[C@@H]1O[C@H](C(=O)*)[C@@H](O)[C@H](O)[C@H]1O; Dmt = Cc1cc(O)cc(C)c1C[C@H](N)C(=O)O; hArg = N=C(N)NCCCC[C@H](N)C(=O)O; Tic = O=C(O)[C@@H]1Cc2ccccc2CN1; Nle = CCCC[C@H](N)C(=O)O; Ac5c = NC1(C(=O)O)CCCC1; Aib = CC(C)(N)C(=O)O

Data set [1] addresses T1, PTH receptor (PTHR1) (Homo sapiens, UniProt Q03431).
T1 construct: Cerep SA
T1 sequence (Q03431 27-593): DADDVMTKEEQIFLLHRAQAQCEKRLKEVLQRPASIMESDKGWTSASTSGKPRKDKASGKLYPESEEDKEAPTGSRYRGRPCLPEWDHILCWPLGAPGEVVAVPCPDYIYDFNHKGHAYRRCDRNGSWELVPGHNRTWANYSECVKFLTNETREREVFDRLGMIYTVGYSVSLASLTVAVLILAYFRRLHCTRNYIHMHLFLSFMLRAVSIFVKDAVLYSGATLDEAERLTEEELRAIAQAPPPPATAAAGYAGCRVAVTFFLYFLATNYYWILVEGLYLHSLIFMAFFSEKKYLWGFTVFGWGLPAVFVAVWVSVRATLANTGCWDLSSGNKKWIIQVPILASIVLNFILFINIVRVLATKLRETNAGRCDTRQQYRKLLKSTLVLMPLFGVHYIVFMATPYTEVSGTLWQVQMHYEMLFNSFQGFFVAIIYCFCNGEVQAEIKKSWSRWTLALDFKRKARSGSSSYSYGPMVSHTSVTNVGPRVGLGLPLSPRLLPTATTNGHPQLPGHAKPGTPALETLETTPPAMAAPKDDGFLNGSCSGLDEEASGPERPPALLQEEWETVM
Description: PTH1 cellular assay, antagonist mode with added PTHrP. As to conditions: read-out: maximal effects in antagonist mode. The format is cell-based. As to the method:
Compounds were weighed precisely in an amount of approximately 1 mg and assayed in standard cellular assays (cerep SA). The readout is the amount of cAMP generated in the cells treated with the test compounds, in either agonist or antagonist mode. The PTH1 cellular assay used is described in Orloff, J. J., et al. (1992) Endocrinol 131: 1603-1611.
Modifications elsewhere in the molecule can be used to further modify the potency and character of the interaction of the drug candidates.

The test system of data set [2] is λ-carrageenan-induced inflammatory pain. Description: λ-carrageenan-induced inflammatory pain model, paw pressure threshold (Randall-Selitto). As to conditions: rats, i.pl., 24 h after carrageenan; beyond 30 min. The format is in vivo, rat. As to the method: Adult male Sprague-Dawley rats were briefly anesthetized with isoflurane, and unilateral hind paw inflammatory pain was induced by injecting […] of λ-carrageenan. A λ-carrageenan injection into the left hind paw produces redness and edema. These alterations were observed within 6 h after induction of inflammation and peaked by 24 h. Further, the changes were confined to the carrageenan treated paw.
Changes in Paw Pressure Thresholds (PPT), a measurement of nociception and antinociception, was evaluated using a digital Randall-Selitto method. Briefly, animals are gently restrained and incremental pressure (maximum 350 g) was applied onto the dorsal surface of the hindpaw. The pressure required to elicit paw withdrawal, PPT, was determined. Paw-thickness, the indicator of inflammation, was measured using digital calipers. 24 h after induction of inflammation, rats received either saline, positive controls (DAMGO (8-32 μg) or fentanyl (0.4-0.8 μg)) or test peptides in 100 μl volume i.pl. The antinociception was measured at different time points (5 to 120 min or 5 hr to 24 hr) after drug administration. Baseline measures were taken before administering drug to confirm the development of inflammation and nociception.

The target in data set [3] is T2, delta2 opioid receptor (Mus musculus, UniProt P32300).
T2 construct: Cerep
T2 sequence (P32300 whole entry): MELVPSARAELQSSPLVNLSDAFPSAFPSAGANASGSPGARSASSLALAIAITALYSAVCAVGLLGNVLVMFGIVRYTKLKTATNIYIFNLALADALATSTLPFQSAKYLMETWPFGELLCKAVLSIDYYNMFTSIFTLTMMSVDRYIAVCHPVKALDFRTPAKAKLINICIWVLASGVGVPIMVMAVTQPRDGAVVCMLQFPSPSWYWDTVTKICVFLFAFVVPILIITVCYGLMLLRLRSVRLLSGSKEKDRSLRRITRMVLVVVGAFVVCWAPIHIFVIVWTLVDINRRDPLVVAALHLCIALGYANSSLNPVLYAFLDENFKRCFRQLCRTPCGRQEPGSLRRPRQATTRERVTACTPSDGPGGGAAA
Description: delta2 opioid receptor cellular assay (DOP), antagonist mode vs DPDPE, cAMP readout. It counts as cell-based. As to the method:
Compounds were weighed precisely in an amount of approximately 2 mg and assayed in standard cellular assays by the contract research organization Cerep, Inc. (Pullman, Wash.) as executed at their subsidiary, Cerep SA (Le Bois l'Eveque, France). The readout is the amount of cAMP generated in the cells treated with the test compounds, in either agonist or antagonist mode. The assays used were the mu opioid receptor cellular assay (MOP in agonist and antagonist mode), the delta2 opioid receptor cellular assay (DOP in agonist and antagonist mode) and the kappa opioid receptor cellular assay (KOP in agonist and antagonist mode). The assays used are described in Wang, J. B., et al. (1994) FEBS Lett 338: 217-222, Law, P. Y. and Loh, H. H. (1993) Mol Pharmacol 43: 684-693, and Avidor-Reiss, T., et al. (1995) FEBS Lett 361: 70-74. The stimulant for the cells in the DOR antagonist assay was 3×10E-8M DPDPE, a well-accepted DOR literature standard.

Data set [4] addresses T3, mu opioid receptor (Homo sapiens, UniProt P35372).
T3 construct: Cerep
Description: mu opioid receptor cellular assay (MOP), agonist mode, cAMP readout (Cerep). It counts as cell-based.

For data set [5], the system named is db/db mice. In words: db/db mice, body weight. The format is in vivo, mouse. Particulars: high dose (300 nmoles/kg), Days 2 and 3. As for the experimental part:
The 60 female db/db B6BKS (D) Leprdb/J (strain 000697) mice for this study were approximately 8 to 9 weeks old at arrival (Jackson Laboratory, Bar Harbor, Me.). The mice were randomized by weight and two treatment groups of 8 female mice each were administered the test articles, EU-A994, EU-A995, or EU-A1026, at dose levels of 100 or 300 nmoles/kg. One group of 8 female mice served as the vehicle control and received the vehicle, 0.2% BSA in saline, pH 7.4. One additional group of 8 female mice received the positive control article, liraglutide, at a dose level of 50 nmoles/kg. The test articles, vehicle, and positive control article were administered on Day 1, at approximately 0, 7, and 24 hours during the study via subcutaneous injection at a dose volume of 6 mL/kg.
(§1) Clinical observations were conducted at receipt, prior to randomization, and daily from Days 1 to 5. Body weights were measured and recorded at receipt, prior to randomization, and daily from Days 1 to 5. Food consumption was measured and recorded daily from Days 1 to 5. Blood samples for glucose analysis were collected pretest (Day −3) and at 0, 1, 2, 4, 8, 10, 24, 48, 72, and 96 hours following the first dose on Day 1. At study termination all animals were euthanized and the carcasses were discarded without further evaluation.

The subject of data set [6] is db/db mice. In words: db/db mice, blood glucose after s.c. dosing. It counts as in vivo, mouse. Particulars: for Mean Blood Glucose: db/db mice, s.c., 300 nmole/kg. As to the method:
The 60 female db/db B6BKS (D) Leprdb/J (strain 000697) mice for this study were approximately 8 to 9 weeks old at arrival (Jackson Laboratory, Bar Harbor, Me.). […] One group of 8 female mice served as the vehicle control and received the vehicle, 0.2% BSA in saline, pH 7.4. One additional group of 8 female mice received the positive control article, liraglutide, at a dose level of 50 nmoles/kg. The test articles, vehicle, and positive control article were administered on Day 1, at approximately 0, 7, and 24 hours during the study via subcutaneous injection at a dose volume of 6 mL/kg.
as §1

For data set [7] the following is noted: in the body; by s.c. injection; cited from earlier work.

T3 sequence (P35372 whole entry): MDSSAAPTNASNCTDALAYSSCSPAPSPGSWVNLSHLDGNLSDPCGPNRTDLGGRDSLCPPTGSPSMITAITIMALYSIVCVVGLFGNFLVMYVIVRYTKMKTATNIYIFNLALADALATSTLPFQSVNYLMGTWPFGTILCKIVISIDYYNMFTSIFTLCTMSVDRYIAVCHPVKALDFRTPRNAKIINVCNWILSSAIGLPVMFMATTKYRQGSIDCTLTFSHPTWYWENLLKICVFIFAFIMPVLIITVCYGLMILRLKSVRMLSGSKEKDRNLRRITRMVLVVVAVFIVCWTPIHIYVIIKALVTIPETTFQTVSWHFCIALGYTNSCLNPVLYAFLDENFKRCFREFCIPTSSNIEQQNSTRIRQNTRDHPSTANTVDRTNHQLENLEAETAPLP

With `CCCCCCCCCCCCO[C@@H]1O[C@H](C(=O)NCCCC[C@H](NC(=O)[C@H](CCC(N)=O)NC(=O)[C@@H](NC(=O)[C@H](Cc2ccccc2)NC(=O)[C@H](CCCNC(=N)N)NC(=O)[C@H](C)NC(=O)[C@H](CCCCNC(=N)N)NC(=O)[C@H](CCC(N)=O)NC(=O)[C@H](Cc2c[nH]cn2)NC(=O)[C@H](CCCC)NC(=O)[C@H](CC(C)C)NC(=O)[C@H](CCC(N)=O)NC(=O)[C@@H](NC(=O)[C@H](CCC(=O)O)NC(=O)C(C)(C)NC(=O)[C@@H](NC(=O)C2(N)CCCC2)C(C)C)[C@@H](C)CC)[C@@H](C)CC)C(N)=O)[C@@H](O)[C@H](O)[C@H]1O` [EU-203] (H-[Ac5c]V[Aib]EIQL[Nle]HQ[hArg]ARFIQK(GlcA(β-D,1-O-dodecyl))-NH2; N-terminus assumed), in data set [1], the Emax worked out at 146%.

With `CO[C@@H]1O[C@H](C(=O)NCCCC[C@H](NC(=O)[C@H](Cc2ccccc2)NC(=O)[C@@H]2Cc3ccccc3CN2C(=O)[C@@H](N)Cc2c(C)cc(O)cc2C)C(N)=O)[C@@H](O)[C@H](O)[C@H]1O` [EU-A178, 2′,6′-dimethyl-L-tyrosyl-L-1,2,3,4-tetrahydroisoquinoline-3-carbonyl-L-phenylalanyl-Nε-(1′-methyl β-D-glucuronyl)-L-lysyl-amide] (H-[Dmt][Tic]FK(βGlcA(1-OMe))-NH2), the “Paw Pressure Thresholds (PPT)” value in data set [2] is listed as “statistically significant increases in PPT”. Moreover, in data set [3], the “Characterization (DOP)” value is given as “pure antagonist; also recorded: pure DOP antag”. Moreover, the “Characterization (MOP)” value in data set [4] is recorded as “full agonistic behavior; also recorded: Pure MOP Ag;”.

For `CCCCCCCCCCCCCCO[C@@H]1O[C@H](C(=O)NCCCC[C@H](NC(=O)[C@@H](NC(=O)[C@H](Cc2ccccc2)NC(=O)[C@H](CCC(=O)O)NC(=O)[C@@H]2CCCCNC(=O)CC[C@H](NC(=O)[C@H](CC(=O)O)NC(=O)[C@H](CC(C)C)NC(=O)[C@H](Cc3ccc(O)cc3)NC(=O)[C@H](CCCCN)NC(=O)[C@H](CO)NC(=O)[C@H](Cc3ccc(O)cc3)NC(=O)[C@H](CC(=O)O)NC(=O)[C@H](CO)NC(=O)[C@@H](NC(=O)[C@H](Cc3ccccc3)NC(=O)[C@@H](NC(=O)CNC(=O)[C@H](CCC(N)=O)NC(=O)C(C)(C)NC(=O)[C@@H](N)Cc3c[nH]cn3)[C@@H](C)O)[C@@H](C)O)C(=O)N[C@@H](CCC(N)=O)C(=O)N[C@@H](C)C(=O)N[C@@H](C)C(=O)N2)[C@@H](C)CC)C(=O)N[C@@H](Cc2c[nH]c3ccccc23)C(=O)N[C@@H](CC(C)C)C(=O)N[C@@H](CC(C)C)C(=O)N[C@@H](CCC(N)=O)C(=O)N[C@H](C(N)=O)[C@@H](C)O)[C@@H](O)[C@H](O)[C@H]1O` [EU-A994], the “body weight changes against vehicle” value in data set [5] was “Significant body weight changes”. The “Mean Blood Glucose” value is 554 mg/dL in data set [6] (0 hr), 242 mg/dL in data set [6] (10 hr), 209 mg/dL in data set [6] (24 hr) and 385 mg/dL in data set [6] (48 hr). For the same compound, the “Glucose levels vs vehicle” value in data set [6] (high dose (300 nmoles/kg), at 10 and 24 hours) was “significantly different from vehicle”.

For `CC[C@H](C)[C@H](NC(=O)[C@H](CCC(=O)O)NC(=O)[C@H](CO)NC(=O)[C@@H](NC(=O)[C@@H](N)CO)C(C)C)C(=O)N[C@@H](CCC(N)=O)C(=O)N[C@@H](CC(C)C)C(=O)N[C@@H](CCSC)C(=O)N[C@@H](Cc1cnc[nH]1)C(=O)N[C@@H](CC(N)=O)C(=O)N[C@@H](CC(C)C)C(=O)NCC(=O)N[C@@H](CCCCN)C(=O)N[C@@H](Cc1cnc[nH]1)C(=O)N[C@@H](CC(C)C)C(=O)N[C@@H](CC(N)=O)C(=O)N[C@@H](CO)C(=O)N[C@@H](CCSC)C(=O)N[C@@H](CCC(=O)O)C(=O)N[C@@H](CCCN=C(N)N)C(=O)N[C@H](C(=O)N[C@@H](CCC(=O)O)C(=O)N[C@@H](Cc1c[nH]c2ccccc12)C(=O)N[C@@H](CC(C)C)C(=O)N[C@@H](CCCN=C(N)N)C(=O)N[C@@H](CCCCN)C(=O)N[C@@H](CCCCN)C(=O)N[C@@H](CC(C)C)C(=O)N[C@@H](CCC(N)=O)C(=O)N[C@@H](CC(=O)O)C(=O)N[C@H](C(=O)N[C@@H](Cc1cnc[nH]1)C(=O)N[C@@H](CC(N)=O)C(=O)N[C@@H](Cc1ccccc1)C(=O)O)C(C)C)C(C)C` [PTH], in data set [7], the half-life (in general, the time needed for the level to fall by half in the phase considered) is 30 min.
